Laboratory results reported in ChEMBL document CHEMBL3817817, “The design strategy of selective PTP1B inhibitors over TCPTP” (Bioorg Med Chem, 2016).
One block for each compound: values may come before it.

Key:
[1] = target: T1, Tyrosine-protein phosphatase non-receptor type 2 (Homo sapiens, UniProt P17706); assay: Inhibition of TCPTP (unknown origin)
T1 sequence (P17706 whole entry): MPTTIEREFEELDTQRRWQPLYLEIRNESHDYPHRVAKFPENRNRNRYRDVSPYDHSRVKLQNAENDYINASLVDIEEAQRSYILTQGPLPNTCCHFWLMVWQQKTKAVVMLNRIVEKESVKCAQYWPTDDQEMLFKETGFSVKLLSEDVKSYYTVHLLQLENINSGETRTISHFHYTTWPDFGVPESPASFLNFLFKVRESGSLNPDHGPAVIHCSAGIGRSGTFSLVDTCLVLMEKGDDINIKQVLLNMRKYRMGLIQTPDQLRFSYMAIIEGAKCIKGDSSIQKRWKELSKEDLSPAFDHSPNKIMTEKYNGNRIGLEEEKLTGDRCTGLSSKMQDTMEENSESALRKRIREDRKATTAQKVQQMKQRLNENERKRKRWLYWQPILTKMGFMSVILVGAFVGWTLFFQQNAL

[2] = target: T2, Tyrosine-protein phosphatase non-receptor type 1 (Homo sapiens, UniProt P18031); assay: Inhibition of PTP1B catalytic domain (1 to 321 residues) (unknown origin) expressed in Escherichia coli BL21 (DE3) cells using p-Nitrophenyl phosphate as substrate
T2 sequence (P18031 whole entry): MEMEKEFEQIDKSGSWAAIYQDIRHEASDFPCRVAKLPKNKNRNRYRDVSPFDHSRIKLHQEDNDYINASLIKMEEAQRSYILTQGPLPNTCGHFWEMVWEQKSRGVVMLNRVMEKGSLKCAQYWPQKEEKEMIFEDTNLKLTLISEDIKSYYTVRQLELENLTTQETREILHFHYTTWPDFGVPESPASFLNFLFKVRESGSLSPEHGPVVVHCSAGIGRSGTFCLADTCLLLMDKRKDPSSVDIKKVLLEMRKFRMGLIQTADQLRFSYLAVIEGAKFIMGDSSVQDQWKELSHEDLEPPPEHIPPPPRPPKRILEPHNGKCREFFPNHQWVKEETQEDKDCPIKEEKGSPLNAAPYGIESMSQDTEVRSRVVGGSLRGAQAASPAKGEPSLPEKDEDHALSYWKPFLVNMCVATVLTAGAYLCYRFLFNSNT

Homo sapiens [3] = species: Homo sapiens; assay: Selectivity ratio of Ki for TCPTP (unknown origin) to Ki for PTP1B catalytic domain (1 to 321 residues) (unknown origin)
[4] = target: T1, Tyrosine-protein phosphatase non-receptor type 2; assay: Inhibition of recombinant TCPTP (unknown origin) at pH 7
[5] = target: T2, Tyrosine-protein phosphatase non-receptor type 1; assay: Inhibition of PTP1B (unknown origin)
[6] = target: T2, Tyrosine-protein phosphatase non-receptor type 1; assay: Inhibition of human recombinant PTP1B catalytic domain using p-nitrophenyl phosphate as substrate by micro plate reader method
[7] = target: T1, Tyrosine-protein phosphatase non-receptor type 2; assay: Inhibition of human TCPTP using p-nitrophenyl phosphate as substrate by micro plate reader method
Homo sapiens [8] = species: Homo sapiens; assay: Selectivity ratio of IC50 for human TCPTP to IC50 for human recombinant PTP1B
[9] = target: T2, Tyrosine-protein phosphatase non-receptor type 1; assay: Inhibition of human PTP1B (1 to 288 residues) expressed in Escherichia coli BL21 (DE3) cells using p-nitrophenyl phosphate as substrate monitered every 30 secs for 15 mins by micro plate reader method
Homo sapiens [10] = species: Homo sapiens; assay: Selectivity ratio of IC50 for TCPTP (unknown origin) to IC50 for human PTP1B (1 to 288 residues)
Homo sapiens [11] = species: Homo sapiens; assay: Selectivity ratio of Ki for TCPTP (unknown origin) to Ki for human PTP1B (1 to 288 residues)
[12] = target: T1, Tyrosine-protein phosphatase non-receptor type 2; assay: Inhibition of TCPTP (unknown origin) using p-nitrophenyl phosphate as substrate by colorimetric method
[13] = target: T2, Tyrosine-protein phosphatase non-receptor type 1; assay: Inhibition of human PTP1B (1 to 288 residues) expressed in Escherichia coli BL21 (DE3) cells using p-nitrophenyl phosphate as substrate by colorimetric method
[14] = target: T1, Tyrosine-protein phosphatase non-receptor type 2; assay: Inhibition of human TCPTP (1 to 296 residues) catalytic domain expressed in Escherichia coli BL21 cells using fluorescein diphosphate as substrate by microplate reader method
[15] = target: T2, Tyrosine-protein phosphatase non-receptor type 1; assay: Inhibition of human recombinant PTP1B catalytic domain expressed in Escherichia coli BL21 (DE3) cells using p-Nitrophenyl phosphate as substrate by microplate reader method
[16] = target: T1, Tyrosine-protein phosphatase non-receptor type 2; assay: Inhibition of human GST-tagged TCPTP expressed in Escherichia coli BL21 (DE3) cells using p-Nitrophenyl phosphate as substrate by microplate reader method
Homo sapiens [17] = species: Homo sapiens; assay: Selectivity ratio of IC50 for human GST-tagged TCPTP to IC50 for human recombinant PTP1B catalytic domain
[18] = target: T2, Tyrosine-protein phosphatase non-receptor type 1; assay: Inhibition of human recombinant PTP1B expressed in Escherichia coli using p-nitrophenyl phosphate as substrate by UV spectroscopy
[19] = target: T1, Tyrosine-protein phosphatase non-receptor type 2; assay: Inhibition of human recombinant TCPTP (1 to 341 residues) expressed in Escherichia coli using p-nitrophenyl phosphate as substrate by UV spectroscopy
Homo sapiens [20] = species: Homo sapiens; assay: Selectivity ratio of IC50 for human recombinant TCPTP (1 to 341 residues) to IC50 for human recombinant PTP1B

Compound: O=C(O)C(=O)Nc1sc2c(c1C(=O)O)CCN(CCc1ccccc1)C2
Ki [4]: 7200 nM

Compound: CO[C@H]1O[C@H](COCc2ccccc2)[C@@H](OCc2ccccc2)[C@H](OCc2cn(CCCOc3ccc(O)c(C(=O)O)c3)nn2)[C@H]1OCc1cn(CCCOc2ccc(O)c(C(=O)O)c2)nn1
IC50 [6]: 7700 nM | IC50 [7]: 54300 nM | Ratio IC50 (Homo sapiens [8]): 7.05

Compound: CC(=O)N[C@H](Cc1ccc(N(C(=O)C(=O)O)c2ccccc2C(=O)O)c2ccccc12)C(=O)NCCCCCOc1cc2ccccc2cc1C(=O)O
IC50 [1]: 49 nM

Compound: COC(=O)c1ccc(C(C/C=C/c2ccccc2)(Cc2ccc(C(F)(F)P(=O)(O)O)cc2)n2nnc3ccccc32)cc1 (stereo unspecified)
IC50 [14]: 87 nM

Compound: O=C(O)C(=O)c1ccc(OCc2ccc(COc3ccc(C(=O)C(=O)O)cc3)c(C(=O)Nc3ccc(Oc4ccccc4)cc3)c2)cc1
IC50 [18]: 1500 nM | IC50 [19]: 2400 nM | Ratio IC50 (Homo sapiens [20]): 1.6

Results, then the compound that gave them:

Ki [1]: 20 nM | Ki [2]: 4.9 nM | Ratio Ki (Homo sapiens [3]): 4.08
Compound: NC(=O)[C@H](Cc1ccc(C(F)(F)P(=O)(O)O)cc1)NC(=O)[C@H](Cc1ccc(O)cc1)NC(=O)Cc1ccc(C(F)(F)P(=O)(O)O)cc1

IC50 [1]: 19200 nM | IC50 [5]: 920 nM
Compound: COC(=O)c1c(O)cccc1OC/C=C/c1cccc(-c2onc(C(=O)O)c2CO)c1

IC50 [6]: 1500 nM | IC50 [7]: 15500 nM | Ratio IC50 (Homo sapiens [8]): 10.3
Compound: CO[C@H]1O[C@H](Cn2cc(NC(=O)c3cccc(C(=O)Nc4cn(C[C@H]5O[C@H](OC)[C@H](OCc6ccccc6)[C@H](OCc6ccccc6)[C@@H]5OCc5ccccc5)nn4)c3)nn2)[C@@H](OCc2ccccc2)[C@@H](OCc2ccccc2)[C@H]1OCc1ccccc1

IC50 [9]: 6900 nM | IC50 [1]: 164000 nM | Ratio IC50 (Homo sapiens [10]): 23.8
Compound: COC(=O)c1c(O)cccc1OC/C=C/c1ccc(F)c(-c2cc(C(=O)O)no2)c1

Ratio Ki (Homo sapiens [11]): 0.94 | Ki [12]: 160 nM | Ki [13]: 170 nM
Compound: CCCCCNC(=O)[C@H](Cc1ccc(C(=O)C(=O)Nc2ccccc2C(=O)O)c(/C=C/C(N)=O)c1)NS(C)(=O)=O

IC50 [15]: 9600 nM | IC50 [16]: 59600 nM | Ratio IC50 (Homo sapiens [17]): 6.2
Compound: COC(=O)[C@H](Cc1ccc(O)cc1)n1cc(CO[C@H]2[C@@H](OCc3ccccc3)[C@@H](OC)O[C@H](COCc3ccccc3)[C@H]2OCc2cn([C@@H](Cc3ccc(O)cc3)C(=O)OC)nn2)nn1
